Test results reported in patent US8247377B2, “Non-steroidal glucocorticoid inhibitors and their use in treating inflammation, allergy and auto-immune conditions” (Glaxo Group Limited, priority 2006, dated 2012).

Tests used:
progesterone receptor = biological target: T1, progesterone receptor (Homo sapiens, UniProt P06401); assay: Assay for progesterone receptor activity (CV-1 cells, PRb-BacMam/MMTV-BacMam); type: cell-based; conditions: CV-1 cells transduced with PRb-BacMam and MMTV-BacMam; read-out: pEC50 progesterone receptor activity (converted)
T1 construct: expressed in transfected cells; host or cells: CV-1 cells transduced with PRb-BacMam and MMTV-BacMam
T1 sequence (P06401 1-933): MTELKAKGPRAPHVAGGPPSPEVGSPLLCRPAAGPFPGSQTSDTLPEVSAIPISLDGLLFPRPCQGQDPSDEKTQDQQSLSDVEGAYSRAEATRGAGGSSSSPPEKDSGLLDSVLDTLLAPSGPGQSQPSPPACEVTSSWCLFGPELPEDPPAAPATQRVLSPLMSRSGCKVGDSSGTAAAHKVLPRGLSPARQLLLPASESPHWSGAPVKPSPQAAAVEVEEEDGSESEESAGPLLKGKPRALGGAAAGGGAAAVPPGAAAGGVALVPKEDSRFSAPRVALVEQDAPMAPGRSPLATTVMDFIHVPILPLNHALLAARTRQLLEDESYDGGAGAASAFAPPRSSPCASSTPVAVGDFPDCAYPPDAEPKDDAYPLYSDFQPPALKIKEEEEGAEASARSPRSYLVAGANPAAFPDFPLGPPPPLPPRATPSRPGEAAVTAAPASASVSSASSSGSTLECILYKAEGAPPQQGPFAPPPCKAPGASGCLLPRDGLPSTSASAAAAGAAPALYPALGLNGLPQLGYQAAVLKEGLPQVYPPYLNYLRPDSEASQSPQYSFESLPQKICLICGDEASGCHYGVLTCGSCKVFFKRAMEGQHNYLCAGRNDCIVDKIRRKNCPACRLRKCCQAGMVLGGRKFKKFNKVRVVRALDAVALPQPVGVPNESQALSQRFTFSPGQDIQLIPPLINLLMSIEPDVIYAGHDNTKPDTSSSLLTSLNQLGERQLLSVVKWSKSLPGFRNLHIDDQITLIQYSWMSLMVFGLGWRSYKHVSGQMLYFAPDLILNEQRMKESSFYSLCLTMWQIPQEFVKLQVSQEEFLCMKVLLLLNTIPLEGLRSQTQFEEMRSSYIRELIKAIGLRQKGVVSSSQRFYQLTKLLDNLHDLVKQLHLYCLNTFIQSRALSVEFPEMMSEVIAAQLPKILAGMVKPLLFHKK
Experimental: A T225 flask of CV-1 cells at a density of 80% confluency was washed with PBS, detached from the flask using 0.25% trypsin and counted using a Sysmex KX-21N. Cells were diluted in DMEM containing 10% Hyclone, 2 mM L-Glutamate and 1% Pen/Strep at 140 cells/μl and transduced with 10% PRb-BacMam and 10% MMTV-BacMam. […] of suspension cells were dispensed to each well of white Nunc 384-well plates, containing compounds at the required concentration. After 24 h 10 μl of Steadylite were added to each well of the plates. Plates were incubated in the dark for 10 min before reading them on a Viewlux reader. Dose response curves were constructed from which pEC50 values were estimated.

glucocorticoid receptor = biological target: T2, glucocorticoid receptor (Homo sapiens, UniProt P04150); assay: Glucocorticoid receptor binding assay (fluorescence polarisation); conditions: competition with Alexa 555 fluorescently-labelled dexamethasone derivative, full length glucocorticoid receptor; read-out: glucocorticoid binding pIC50 (converted)
T2 construct: a partially purified full length glucocorticoid receptor
T2 sequence (P04150 1-777): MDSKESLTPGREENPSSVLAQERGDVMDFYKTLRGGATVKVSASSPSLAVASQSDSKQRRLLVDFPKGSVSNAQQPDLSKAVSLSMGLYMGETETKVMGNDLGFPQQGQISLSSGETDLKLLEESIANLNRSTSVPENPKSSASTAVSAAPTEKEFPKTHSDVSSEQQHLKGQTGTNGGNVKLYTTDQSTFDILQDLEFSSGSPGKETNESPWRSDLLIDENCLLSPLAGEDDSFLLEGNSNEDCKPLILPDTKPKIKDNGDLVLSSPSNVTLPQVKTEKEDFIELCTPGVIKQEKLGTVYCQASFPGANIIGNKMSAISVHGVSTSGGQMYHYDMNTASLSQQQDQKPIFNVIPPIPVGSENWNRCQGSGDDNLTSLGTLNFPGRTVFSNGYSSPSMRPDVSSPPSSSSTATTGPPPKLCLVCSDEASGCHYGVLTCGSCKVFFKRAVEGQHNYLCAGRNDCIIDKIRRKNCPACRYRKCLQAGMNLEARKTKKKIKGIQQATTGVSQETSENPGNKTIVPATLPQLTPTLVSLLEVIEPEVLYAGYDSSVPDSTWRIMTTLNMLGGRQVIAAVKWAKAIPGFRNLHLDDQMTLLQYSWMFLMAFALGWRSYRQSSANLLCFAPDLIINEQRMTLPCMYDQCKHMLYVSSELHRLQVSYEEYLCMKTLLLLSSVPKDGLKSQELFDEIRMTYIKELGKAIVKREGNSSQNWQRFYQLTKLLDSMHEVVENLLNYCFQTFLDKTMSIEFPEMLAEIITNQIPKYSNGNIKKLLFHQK
Experimental: Compounds were solvated and diluted in DMSO, and transferred directly into assay plates. Fluorescent dexamethasone and a partially purified full length glucocorticoid receptor were added to the plates, together with buffer components to stabilise the GR protein and incubated at room temperature for 2 hrs in the dark. Binding of each compound was assessed by analysing the displacement of fluorescent ligand by measuring the decrease in fluorescence polarisation signal from the mixture. Dose response curves were constructed from which pIC50 values were estimated.

NFκB = NFκB agonist assay in A549 SPAP cells; type: cell-based; conditions: Homo sapiens; for IC50: A549 SPAP cells, TNFα 3.2 ng/ml, read-out: pIC50 for the NFkB assay (converted);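 for average maximum asymptote in the NFkB assay: maximum inhibition of the TNFα-induced NFκB-driven signal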
Description: Human lung carcinoma A549 cell line (ECACC No. 86012804) has been stably transfected in house with a plasmid containing an ELAM promoter sequence that has a NFκB response element within it. Stimulation of the cell line with TNFα results in intracellular signal transduction and ultimately translocation of NFκB into the nucleus. This activates the inserted DNA sequence resulting in transcription of the integrated SPAP gene, which is quantified using a colorimetric assay. […] The stably transfected cell line was grown as a monolayer in DMEM supplemented with FCS-HI (10%), Non-essential amino acids (1%), L-Glutamine (2 mM), Pen/Strep (1%) and Geneticin (50 mg/ml).
A 70% confluent T225 flask of A549 SPAP cells was harvested by centrifugation for 5 min at 200 g, resuspended in assay buffer (DMEM supplemented with 10% FCS 2×HI, 2 mM L-Glutamine, 1% Pen/Strep and Non essential amino acids) and diluted to 0.16×10^6/ml. 60 μl of cell solution was dispensed to each well of clear Nunc 384-well plates, containing compound at the required concentration. Plates were incubated for 1 h at 37° C., 95% humidity, 5% CO2 before 10 μl of TNFα was added at final concentration of 3.2 ng/ml and then returned to the cell incubator for 15 h. Plates were equilibrated to room temperature for 1 h prior to the addition of 25 μl of pNPP buffer (1M Diethanolamine pH 9.8, 0.5 mM MgCl2, 0.28M NaCl, 2 mg/ml pNPP) to each well of assay plates. The plates were covered to protect the reagents from light, and then incubated at room temperature for approximately 1 hour before reading them on an Ascent using a 405 nm single filter. Dose response curves were constructed from which pIC50 values were estimated.

MMTV promoter = assay: MMTV agonist assay in A549 MMTV cells; type: cell-based; conditions: Homo sapiens, A549, 6 h, >85% = full agonist, >20% and <85% = partial or efficacy selective agonist, read-out: average maximum asymptote in the MMTV agonist assay
Description: Human lung carcinoma A549 cell line (ECACC No. 86012804) has been stably transfected in house with a plasmid containing a renilla luciferase reporter with an MMTV promoter. Stimulation of the cell line with GR agonists results in intracellular signal transduction and ultimately translocation of GR into the nucleus. This activates the inserted DNA sequence resulting in transcription of the integrated luciferase gene, which is quantified using a light emission. The stably transfected cell line was grown as a monolayer in DMEM supplemented with FCS-HI (10%), Non-essential amino acids (1%), L-Glutamine (2 mM), Pen/Strep (1%) and Geneticin (50 mg/ml).
A 90% confluent T175 flask of A549 MMTV cells was harvested by centrifugation for 5 min at 200 g, resuspended in assay buffer (DMEM supplemented with 10% FCS 2×HI, 2 mM Glutamax, Non essential amino acids and 25 mM HEPES) and diluted to 0.1×10^6/ml. 70 μl of cell solution was dispensed to each well of white Nunc 384-well plates, containing compound at the required concentration. Plates were incubated for 6 h at 37° C., 95% humidity, 5% CO2. Plates were equilibrated to room temperature for 1 h prior to the addition of 10 μl of Renilla substrate to each well of assay plates. The plates were covered to protect the reagents from light, and then incubated at room temperature for approximately 15 mins before reading them on a Viewlux. Dose response curves were constructed from which pEC50 and maximum asymptote values were estimated.

Structure (SMILES) | EC50 (progesterone receptor) | IC50 (glucocorticoid receptor) | IC50 (NFκB) | Emax (MMTV promoter) | Emax (NFκB; A549, A549 SPAP cells, >85% = full agonist, ≧20% = partial or full agonist, read-out: average maximum asymptote in the NFkB assay)
Nc1c(C(=O)NCC(O)(CNC(=O)c2c(F)cccc2F)C(F)(F)F)cnn1-c1ccc(F)cc1 (racemic) [Example 6 (racemic), 5-Amino-N-[2-({[(2,6-difluorophenyl)carbonyl]amino}methyl)-3,3,3-trifluoro-2-hydroxypropyl]-1-(4-fluorophenyl)-1H-pyrazole-4-carboxamide] | > 1 µM |  |  |  | 
Nc1c(C(=O)NCC(O)(CNC(=O)c2c(OC(F)F)cccc2OC(F)F)C(F)(F)F)cnn1-c1ccc(F)cc1 (racemic) [Example 20 (racemic), 5-amino-N-(2-{[({2,6-bis[(difluoromethyl)oxy]phenyl}carbonyl)amino]methyl}-3,3,3-trifluoro-2-hydroxypropyl)-1-(4-fluorophenyl)-1H-pyrazole-4-carboxamide] | > 1 µM | ≤ 0.316 µM |  |  | 
Nc1c(C(=O)NCC(O)(CN(CCF)C(=O)c2c(OC(F)F)cccc2OC(F)F)C(F)(F)F)cnn1-c1ccc(F)cc1 (racemic) [Example 32 (racemic), 5-amino-N-(2-{[({2,6-bis[(difluoromethyl)oxy]phenyl}carbonyl)(2-fluoroethyl)amino]methyl}-3,3,3-trifluoro-2-hydroxypropyl)-1-(4-fluorophenyl)-1H-pyrazole-4-carboxamide] | > 1 µM | ≤ 0.316 µM | < 1 µM |  | 
Nc1c(C(=O)NCC(O)(CNC(=O)c2c(F)cccc2OC(F)F)C(F)(F)F)cnn1-c1ccc(F)cc1 (racemic) [Example 48 (racemic), 5-Amino-N-(2-{[({2-[(difluoromethyl)oxy]-6-fluorophenyl}carbonyl)amino]methyl}-3,3,3-trifluoro-2-hydroxypropyl)-1-(4-fluorophenyl)-1H-pyrazole-4-carboxamide] | > 1 µM | ≤ 0.316 µM | < 1 µM |  | 
CCN(CC(O)(CNC(=O)c1cnn(-c2ccc(F)cc2)c1N)C(F)(F)F)C(=O)c1c(Cl)cccc1Cl (single isomer, unassigned) [Example 2 Enantiomer 1, 5-Amino-N-(2-{[[(2,6-dichlorophenyl)carbonyl](ethyl)amino]methyl}-3,3,3-trifluoro-2-hydroxypropyl)-1-(4-fluorophenyl)-1H-pyrazole-4-carboxamide] | > 1 µM | ≤ 0.316 µM | < 1 µM |  | 
CCN(CC(O)(CNC(=O)c1cnn(-c2ccc(F)cc2)c1N)C(F)(F)F)C(=O)c1c(F)cccc1Cl (single isomer, unassigned) [Example 4 Enantiomer 1, 5-Amino-N-(2-{[[(2-chloro-6-fluorophenyl)carbonyl](ethyl)amino]methyl}-3,3,3-trifluoro-2-hydroxypropyl)-1-(4-fluorophenyl)-1H-pyrazole-4-carboxamide] | > 1 µM | ≤ 0.316 µM | < 1 µM |  | 
Nc1c(C(=O)NCC(O)(CNC(=O)c2c(F)cccc2Cl)C(F)(F)F)cnn1-c1ccc(F)cc1 (single isomer, unassigned) [Example 7 Enantiomer 1, 5-Amino-N-[2-({[(2-chloro-6-fluorophenyl)carbonyl]amino}methyl)-3,3,3-trifluoro-2-hydroxypropyl]-1-(4-fluorophenyl)-1H-pyrazole-4-carboxamide] | > 1 µM |  | < 1 µM |  | 
Nc1c(C(=O)NCC(O)(CNC(=O)c2c(F)cccc2Cl)C(F)(F)F)cnn1-c1ccc(F)cc1 (single isomer, unassigned) [Example 7 Enantiomer 2, 5-Amino-N-[2-({[(2-chloro-6-fluorophenyl)carbonyl]amino}methyl)-3,3,3-trifluoro-2-hydroxypropyl]-1-(4-fluorophenyl)-1H-pyrazole-4-carboxamide] |  |  |  | 20 to 85% | ≥ 20%
Nc1c(C(=O)NCC(O)(CNC(=O)c2c(C(F)(F)F)cccc2C(F)(F)F)C(F)(F)F)cnn1-c1ccc(F)cc1 (single isomer, unassigned) [Example 15 Enantiomer 2, 5-amino-N-{2-[({[2,6-bis(trifluoromethyl)phenyl]carbonyl}amino)methyl]-3,3,3-trifluoro-2-hydroxypropyl}-1-(4-fluorophenyl)-1H-pyrazole-4-carboxamide] |  |  | < 1 µM |  | 
